From patent publication US20210363110A1, “4-METHYLDIHYDROPYRIMIDINONE COMPOUNDS AND PHARMACEUTICAL USE THEREOF” (Japan Tobacco Inc., priority 2018, published 2021)
pEC50: −log10 of the molar value.

Assays:
[1] = Metabolic stability in liver microsomes, rat; format: in vitro ADME; conditions: residual ratio of unreacted substance, 0.2 mg/mL microsomes, NADPH generating system
Protocol: (§1) A test solution was prepared by diluting 10 mM DMSO solution of a test substance with acetonitrile by 100 times.
(§2) Human and animal liver microsomes (SEKISUI XENOTECH; Human (H2610), Rat (R1000), Mouse (M1000), Monkey (P2000), Dog (D1000)) were adjusted with potassium phosphate buffer (pH 7.4) to 0.2 mg/mL in the reaction system. Then, 1% of the solution of a test substance prepared was added to the reaction system. Thereto was added an NADPH generating system (prepared according to the method of Non Patent Literature 28), and the metabolic reaction was initiated. At a designated time, 0.1% formic acid-acetonitrile/water (3:1) was added thereto, and the reaction was terminated.
(§3) The sample after termination of the reaction was separated by centrifugation (1400 g, 20 min.), and then the supernatant was measured by LC/MS (UPLC-SQD (waters)) to calculate a residual ratio of unreacted substances.

[2] = Metabolic stability in hepatocytes, monkey; format: in vitro ADME; conditions: residual ratio of unreacted substance, 1×10^6 cells/mL
Protocol: (§4) A test solution was prepared by diluting 10 mM DMSO solution of a test substance with acetonitrile by 20 times.
(§5) Human and animal cryopreserved hepatocyte (BIOIVT; Human (IVT-X008000), Rat (IVT-M00005), Monkey (IVT-M00305), Dog (IVT-M00205)) were adjusted with William's Medium E (SIGMA; W1878) to 1×10^6 cells/mL of a cell suspension, which was then added to a 96-well plate. Then, 1% of the solution of a test substance prepared was added to the reaction system, and the metabolic reaction was initiated. At a designated time, 0.1% formic acid-acetonitrile was added thereto, and the reaction was terminated.
as §3

[3] = Metabolic stability in hepatocytes, rat; format: in vitro ADME; conditions: residual ratio of unreacted substance, 1×10^6 cells/mL
Protocol: as §4, §5, §3

[4] = Metabolic stability in liver microsomes, monkey; format: in vitro ADME; conditions: residual ratio of unreacted substance, 0.2 mg/mL microsomes, NADPH generating system
Protocol: as §1, §2, §3

[5] = Metabolic stability in liver microsomes, mouse; format: in vitro ADME; conditions: residual ratio of unreacted substance, 0.2 mg/mL microsomes, NADPH generating system
Protocol: as §1, §2, §3

[6] = Metabolic stability in liver microsomes, human; format: in vitro ADME; conditions: residual ratio of unreacted substance, 0.2 mg/mL microsomes, NADPH generating system
Protocol: as §1, §2, §3

human RORγ = biological target: T1, human RORγ (Homo sapiens, UniProt P51449); test: Reporter gene assay for inhibitory effect against RORγ transcriptional activity (GAL4-hRORγ LBD, luciferase, CHO cells); format: cell-based; conditions: pFA/hRORγ + pG5-Luc, 2 days incubation
T1 construct: from Ser253 to Lys518 for human RORγ; expressed in transfected cells; host or cells: CHO cells (transient co-transfection with pG5-Luc)
T1 sequence (P51449 253-518): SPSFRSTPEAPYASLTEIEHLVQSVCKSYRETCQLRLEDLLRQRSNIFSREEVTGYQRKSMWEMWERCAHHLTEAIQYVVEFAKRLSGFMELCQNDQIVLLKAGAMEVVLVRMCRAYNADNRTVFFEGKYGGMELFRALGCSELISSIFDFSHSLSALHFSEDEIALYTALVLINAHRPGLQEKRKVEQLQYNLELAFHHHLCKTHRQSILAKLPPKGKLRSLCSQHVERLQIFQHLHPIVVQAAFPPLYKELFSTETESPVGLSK
Protocol: Inhibitory effect against RORγ transcriptional activity was assessed by reporter gene assay for test compounds.
cDNAs encoding human and mouse RORγ ligand binding domains (LBD) were obtained based on the sequences of human RORγ (Genbank registered number NM_005060.3) and mouse RORγ (Genbank registered number NM_011281.2) (LBD sequences: from Ser253 to Lys518 for human RORγ; from Ile251 to Lys516 for mouse RORγ).
LBD cDNAs of human and mouse RORγ were inserted into pFA-CMV vector (Agilent Technologies, Inc.), which expresses GAL4-DNA binding domain fusion protein. The resulting plasmids are hereinafter referred to as pFA/hRORγ plasmid and pFA/mRORγ plasmid, respectively. […]
Cell viability was tested by luminescence method with CellTiter-Glo (Promega). […] Ten minutes after the addition, luminescence was measured for each well with a microplate reader. The luminescence count in the cells treated with 0.2% DMSO alone was defined as 100%, and the cell viability after treatment with the test compound was calculated as a percentage (%-of-control) based on the value of 0.2% DMSO alone. When the cell viability was 70% or less, a test compound was assessed to have cytotoxicity.
RORγ transcriptional activity was detected as the intracellular luciferase activity using SteadyLite HTS Reporter Gene Assay System (Perkin Elmer). […]

Row | Metabolic stability in liver microsomes at 60 min., Rat [1] | Metabolic stability in hepatocytes at 240 min., Monkey [2] | Metabolic stability in hepatocytes at 240 min., Rat [3] | Metabolic stability in liver microsomes at 60 min., Monkey [4] | Metabolic stability in liver microsomes at 60 min., Mouse [5] | Metabolic stability in liver microsomes at 60 min., Human [6] | pEC50 (human RORγ) | SMILES
1 | 95% | 85% | 94% | 96% | 98% | 96% | 7.85 | CC[C@H](C)C1=CN(C23CC(C(=O)O)(C2)C3)C(=O)N[C@@]1(C)c1ccc([C@@H]2C[C@H]2C(C)(C)C)c(Cl)c1 [Compound (2), 3-{(S)-5-((S)-sec-Butyl)-4-[4-((1R,2R)-2-tert-butyl-cyclopropyl)-3-chloro-phenyl]-4-methyl-2-oxo-3,4-dihydro-2H-pyrimidin-1-yl}bicyclo[1.1.1]pentane-1-carboxylic acid]
2 | 103% | 83% | 90% | 93% | 95% | 99% | 7.64 | CC(C)C1=CN(C23CC(C(=O)O)(C2)C3)C(=O)N[C@@]1(C)c1ccc([C@@H]2C[C@H]2C(C)(C)C)c(Cl)c1 [Compound (1), 3-{(S)-4-[4-((1R,2R)-2-tert-Butyl-cyclopropyl)-3-chloro-phenyl]-5-isopropyl-4-methyl-2-oxo-3,4-dihydro-2H-pyrimidin-1-yl}bicyclo[1.1.1]pentane-1-carboxylic acid]
